Reference: ChEMBL document CHEMBL5608141, “Identification of compartment-specific drug sensitivities in CRC organoid-stroma co-cultures” (2024)

Columns and labels:
Format in all cases: functional, Homo sapiens
Set-up in all cases: dose or concentration left out as unconfirmed
Colon cancer organoid [1] = assay: Identification of compartment-specific drug sensitivities in O14 CRC organoid-stroma F14 CAF co-cultures. Organoid is transduced with Lucferase2-P2A-EGFP lentivirus, fibroblast with Renilla-dsRed lentivirus. Dual-Glo Luciferase assay is used to report viability data.
Colon cancer organoid [2] = assay: Identification of compartment-specific drug sensitivities in O20 CRC organoid-stroma F20 CAF co-cultures. Organoid is transduced with Lucferase2-P2A-EGFP lentivirus, fibroblast with Renilla-dsRed lentivirus. Dual-Glo Luciferase assay is used to report viability data.
Colon cancer organoid [3] = assay: Identification of compartment-specific drug sensitivities in O06 CRC organoid-stroma F06 CAF co-cultures. Organoid is transduced with Lucferase2-P2A-EGFP lentivirus, fibroblast with Renilla-dsRed lentivirus. Dual-Glo Luciferase assay is used to report viability data.
[4] = Transduced with Lucferase2-P2A-EGFP lentivirus
[5] = Transduced with Renilla-dsRed lentivirus

Row | Structure (SMILES) | Cell Viability (Colon cancer organoid [1]; [4]) [%] | Cell Viability (Colon cancer organoid [1]; [5]) [%] | Cell Viability (Colon cancer organoid [2]; [4]) [%] | Cell Viability (Colon cancer organoid [2]; [5]) [%] | Cell Viability (Colon cancer organoid [3]; [4]) [%] | Cell Viability (Colon cancer organoid [3]; [5]) [%]
1 | COc1cc(N2CCC(O)CC2)ccc1Nc1cc(Nc2ccccc2S(=O)(=O)C(C)C)c2cc[nH]c2n1 | 92.4485 | 85.3579 | 108.341 | 84.332 | 85.241 | 81.2438
2 | CCc1cccc(CC)c1NC(=O)c1nn(C)c2c1CCc1cnc(Nc3ccc(C(=O)NC4CCN(C)CC4)cc3OC(F)(F)F)nc1-2 | 11.9525 | 117.182 | 94.5822 | 107.437 | 8.756 | 150.393
3 | O=C(Nc1cccnn1)N1CCC(=Cc2cccc(Oc3ccc(C(F)(F)F)cn3)c2)CC1 | 96.3845 | 120.944 | 75.4997 | 114.419 | 103.919 | 125.543
4 | COc1cc(Nc2nccc(-c3cnn4nc(OC)ccc34)n2)cc(C(F)(F)F)c1 | 7.4245 | 53.4313 | 11.0854 | 189.711 | 29.547 | 143.538
5 | C[C@@H]1CCNC(=O)c2cc3ccc(C(=O)Nc4nc5ccccc5n4CCCN(C)C)cc3n21 | 75.4357 | 82.3994 | 65.8011 | 147.158 | 65.6776 | 63.6239
6 | COc1cc(C)c(Sc2cnc(NC(=O)c3ccc(CNC(C)C(C)(C)C)cc3)s2)cc1C(=O)N1CCN(C(C)=O)CC1 (configuration not stated) | 52.0168 | 58.5352 | 91.6907 | 97.5626 | 97.8632 | 73.4932
7 | COc1ccccc1S(=O)(=O)Nc1ccc2c(c1)CN(C)C(=O)N2 | 127.49 | 84.3735 | 112.453 | 99.8859 | 75.1061 | 112.248
8 | O=C(Nc1cccnc1)c1cc(-c2ccnc(F)c2)ccc1OCc1ccccc1 | 142.728 | 107.033 | 125.357 | 104.766 | 87.3368 | 83.1264
9 | CNc1nc(Nc2cnn([C@H]3CCN(C4COC4)C[C@@H]3F)c2Cl)ncc1C(F)(F)F | 109.423 | 94.4968 | 197.594 | 86.9942 | 94.4056 | 87.0484
10 | COc1cc2c(cc1NS(=O)(=O)c1ccc(Br)cc1C)n(C)c(=O)n2C | 88.9015 | 103.244 | 86.7229 | 193.757 | 53.0589 | 146.987
11 | Clc1cccc(-c2nnnn2Cc2cccnc2)c1Cl | 96.2273 | 101.208 | 106.259 | 101.74 | 149.518 | 281.873
12 | Cc1nc(N2CC[C@H](O)C2)ncc1-c1cc(C(F)(F)F)cc2[nH]ncc12 | 76.9456 | 116.548 | 47.2711 | 153.575 | 124.32 | 144.84
13 | CC(C)(O)CNc1ncc(-c2ccnc(Nc3ccnc(Cl)c3)n2)c(CC2CC2)n1 | 84.1319 | 170.669 | 67.8279 | 172.835 | 30.6205 | 168.017
14 | CCOc1cc(N2CCC(O)CC2)ccc1Nc1ncc2c(n1)N(C1CCCC1)CCC(=O)N2C | 84.5477 | 160.888 | 51.7552 | 144.517 | 80.3618 | 151.464
15 | Cn1cc(-c2[nH]c3cc(NC(=O)[C@H](N)C4CCCCC4)cc4c3c2C=NNC4=O)cn1 | 1.912 | 87.1489 | 23.2406 | 172.741 | 9.334 | 180.436
16 | O=C1CCc2cc(Nc3cc(OC4CCOCC4)c([N+](=O)[O-])cc3Cl)ccc2N1 | 98.9348 | 106.803 | 150.133 | 114.972 | 74.579 | 100.938

Row | Structure (SMILES) | Cell Viability (Colon cancer organoid [1]; [4]) [%] | Cell Viability (Colon cancer organoid [1]; [5]) [%] | Cell Viability (Colon cancer organoid [2]; [4]) [%] | Cell Viability (Colon cancer organoid [2]; [5]) [%] | Cell Viability (Colon cancer organoid [3]; [4]) [%] | Cell Viability (Colon cancer organoid [3]; [5]) [%]
17 | CCNC(=O)c1cc2c(N3CCOC[C@@H]3C)ccnc2n1C | 116.155 | 112.32 | 107.341 | 102.95 | 84.5961 | 69.3706
18 | O=C(Nc1ccc(-c2ccnc(Nc3ccc(N4CCOCC4)cc3)n2)cc1)[C@@H]1CCCN1 | 129.164 | 79.5845 | 139.273 | 76.0213 | 100.254 | 96.014
19 | CCC(=O)Nc1cccc(Oc2nc(Nc3ccc(N4CCN(C)CC4)cc3OC)ncc2Cl)c1 | 157.299 | 90.5023 | 125.304 | 105.023 | 92.8013 | 94.5997
20 | CCc1cc(Nc2nccc(-c3c(-c4ccc(OC)c(C(=O)Nc5c(F)cccc5F)c4)nc4ccccn34)n2)c(OC)cc1N1CCC(N2CCN(S(C)(=O)=O)CC2)CC1 | 103.898 | 108.534 | 117.027 | 82.2783 | 86.7992 | 78.7013
21 | Cc1c(C(=O)O)cc(-c2ccc(C3CCNCC3)cc2)c2ccc(-c3ccc(C(F)(F)F)cc3)cc12.Cl | 68.1012 | 79.713 | 115.772 | 99.1911 | 69.2582 | 93.9723
22 | CN(C)C(=O)c1ccc(-c2cc(C(=O)N[C@@H]3CCc4ccccc43)no2)cc1O | 90.3054 | 109.902 | 99.2292 | 104.475 | 113.879 | 93.2478
23 | COc1cc(-c2cn([C@H]3CCc4ccccc4N(CC(F)(F)F)C3=O)nn2)ccc1-n1ccc(C)n1 | 96.3015 | 79.1491 | 70.0794 | 119.033 | 66.2416 | 74.3796
24 | C=CC(=O)Nc1ccc2[nH]c(=O)n(C3CCN(C(=O)c4ccc(-c5nc6cc[nH]c(=O)c6cc5-c5ccccc5)cc4)CC3)c2c1 | 66.8064 | 102.36 | 102.668 | 80.5582 | 100.634 | 129.997
25 | CN(C)C(=O)c1ccc(-c2cc(C(=O)N(C)C3CCCC3)no2)cc1O | 137.993 | 111.926 | 123.545 | 110.433 | 126.057 | 129.278
26 | C[C@@H](c1cccc(C#N)c1)n1cc(Cl)cc(C(N)=O)c1=N.Cl | 101.632 | 106.42 | 64.4613 | 72.4154 | 92.5611 | 127.503
27 | CCN(Cc1ccc(Cl)cc1)c1ncc(C(=O)NCCCN2CCCC2=O)c(NC2CCCC2)n1 | 127.363 | 88.0275 | 67.2116 | 104.655 | 93.3549 | 154.26
28 | CC(C)S(=O)(=O)c1ccc2nccc(Nc3ccc4scnc4c3)c2c1 | 128.948 | 98.4032 | 147.82 | 98.2209 | 84.0973 | 95.5761
29 | O=C(Nc1cccnn1)N1CC(C/C=C/c2cncc(Oc3ccc(C(F)(F)F)cn3)n2)C1 | 132.074 | 108.992 | 97.9448 | 112.944 | 130.234 | 92.9489
30 | c1ccc2oc(-c3csc(C4CCN(Cc5nc6ncccc6[nH]5)CC4)n3)cc2c1 | 115.362 | 96.8387 | 55.8704 | 105.216 | 118.221 | 124.83
31 | Cc1cnc(Nc2ccc(F)cc2Cl)nc1-c1c[nH]c(C(=O)N[C@H](CO)c2cccc(Cl)c2)c1 | 47.0783 | 28.0153 | 6.88 | 113.857 | 51.8597 | 63.6391
32 | CNC(=O)Nc1ccc(-c2nc(N3CC4CCC(C3)O4)c3cnn(C4CCC5(CC4)OCCO5)c3n2)cc1 | 29.4838 | 39.9364 | 5.83 | 97.6391 | 4.885 | 48.532
